Source: patent US11306071B2, “Heterocyclic compounds as adenosine antagonists” (Nuvation Bio Inc., priority 2019, dated 2022)

Key:
[1] = molecular target: HEK-293 cells expressing human recombinant adenosine A2A receptor (Homo sapiens (Human), UniProt P29274); assay: cAMP assay (Assay 2), A2A receptor; format: cell-based
Procedure: The functional activity of compounds was tested using Assay 2, below, to detect the presence of cAMP. Assay 1 is an alternative assay for this purpose. Activation of G-protein coupled receptors (such as A2A) results in activation of adenylyl cyclase which converts ATP into cAMP which is used as a downstream signaling molecule. Therefore, molecules which act as GPCR (or specifically A2A receptor) antagonists cause a decrease in intracellular cAMP concentration.
Assay 2 (Table B2): This assay used HEK-293 cells expressing human recombinant adenosine A2A receptor (or, alternatively, A1 receptor) that were grown prior to the test in media without antibiotic. 100 nL of test articles at 100x of final concentration were transferred to assay plate by Echo. Cells were washed twice with 5 mL of PBS and 10 μL of cells were mixed with 5 mL PBS. After aspirating the PBS and adding 1.5 mL versine, cells were incubated at 37° C. for 2-5 min. After centrifugation, 4 mL of medium was added and adjusted cell density to 5,000 cells/well with Stimulation Buffer. 10 μL of cells were aliquoted to the assay plate, centrifuged at 1000 rpm for 1 minute, and incubated for 60 minutes at room temperature. 5 μL 4× Eu-cAMP tracer solution and 5 μL 4× Ulight™-anti-cAMP solution were added to assay plate, followed by centrifugation and 60-minute incubation at room temperature. Plates were read on EnVision.

[2] = molecular target: adenosine A1 (human) membrane (Homo sapiens (Human), UniProt P30542); assay: A1 adenosine receptor radioligand binding assay ([3H] DPCPX); conditions: 200 nM compound; radioligand [3H] DPCPX 1 nM
Chain of adenosine A1 (human) membrane (P30542 whole entry): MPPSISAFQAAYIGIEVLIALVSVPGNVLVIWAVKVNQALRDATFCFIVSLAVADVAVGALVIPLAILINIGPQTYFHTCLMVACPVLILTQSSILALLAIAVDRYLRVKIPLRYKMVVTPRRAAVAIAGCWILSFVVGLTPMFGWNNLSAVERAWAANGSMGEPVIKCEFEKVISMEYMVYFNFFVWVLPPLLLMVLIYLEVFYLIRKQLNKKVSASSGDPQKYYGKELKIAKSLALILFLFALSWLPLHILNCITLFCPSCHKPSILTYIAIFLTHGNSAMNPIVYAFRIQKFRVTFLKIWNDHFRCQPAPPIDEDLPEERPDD
Procedure: A second A1 adenosine receptor radioligand binding assay protocol was used. The protocol used adenosine A1 (human) membrane (PerkinElmer ES-010-M400UA) at a concentration of 2.5 μg/well/100 μl and the radioligand [3H] DPCPX (Cat No. PerkinElmer-NET974250UC) at a final concentration of 1 nM. Testing compounds were tested at a final concentration of 200 nM. CGS-15943, the reference compound, was tested in an 8-point 4-fold serial dilution, starting at a top concentration of 1 μM. 1 μl of compounds/high control/low control was transferred to the assay plate according to a plate map, followed by 100 μl of membrane stocks and 100 μl of radioligand, in assay buffer (25 mM HEPES, 5 mM MgCl2, 1 mM CaCl2, 100 mM NaCl, pH 7.4). The plate was sealed and incubated at RT for 1 hour. Unifilter-96 GF/C filter plates (Perkin Elmer Cat #6005174) were soaked with 50 μl of 0.3% PEI per well for at least 0.5 hour at room temperature. When the binding assays were completed, the reaction mixtures were filtered through GF/C plates using Perkin Elmer Filtermate Harvester, and each plate washed 4 times with cold wash buffer (25 mM HEPES, 5 mM MgCl2, 1 mM CaCl2, 100 mM NaCl, pH 7.4). The filter plates were dried for 1 hour at 50 degrees. After drying, the bottom of the filter plate wells was sealed, 50 μl of Perkin Elmer Microscint 20 cocktail was added, and the top of the filter plate was sealed. ^3H trapped on the filter was counted using Perkin Elmer MicroBeta2 Reader. The data were analyzed with GraphPad Prism 5 to obtain binding IC50 values for the reference compound. The “Inhibition [% Control]” was calculated using the equation: % Inh=(1-Background subtracted Assay value/Background subtracted HC value)*100, where HC is high control.

[3] = molecular target: adenosine A2a (human) membrane (Homo sapiens (Human), UniProt P29274); assay: A2A adenosine receptor radioligand binding assay ([3H] CGS-21680); conditions: radioligand [3H] CGS-21680 6 nM
Chain of adenosine A2a (human) membrane (P29274 whole entry): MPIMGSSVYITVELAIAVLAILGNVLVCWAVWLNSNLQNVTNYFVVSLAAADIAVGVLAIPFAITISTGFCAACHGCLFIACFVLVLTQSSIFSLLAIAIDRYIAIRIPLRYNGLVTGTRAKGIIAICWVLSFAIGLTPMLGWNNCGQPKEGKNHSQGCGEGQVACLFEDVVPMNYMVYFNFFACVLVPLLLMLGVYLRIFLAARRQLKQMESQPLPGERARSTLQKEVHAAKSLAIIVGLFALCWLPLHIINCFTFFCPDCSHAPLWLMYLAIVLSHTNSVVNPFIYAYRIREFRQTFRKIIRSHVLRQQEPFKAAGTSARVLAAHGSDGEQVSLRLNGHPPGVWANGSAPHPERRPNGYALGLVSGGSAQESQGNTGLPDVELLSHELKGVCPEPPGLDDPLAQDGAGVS
Procedure: A second A2A adenosine receptor radioligand binding assay protocol was used. The protocol used adenosine A2a (human) membrane (PerkinElmer RBHA2AM400UA) at a concentration of 5 μg/well/100 μl and the radioligand [3H] CGS-21680 (Cat No. PerkinElmer-NET1021250UC) at a final concentration of 6 nM. Testing compounds were diluted with DMSO to make 8-point 4-fold serial dilution, starting at 0.2 mM. CGS-15943 was the reference compound. 1 μl of compounds/high control/low control was transferred to the assay plate according to a plate map, followed by 100 μl of membrane stocks and 100 μl of radioligand, in assay buffer (50 mM Tris-HCl, 10 mM MgCl2, 1 mM EDTA, pH 7.4). The plate was sealed and incubated at RT for 2 hours. Unifilter-96 GF/C filter plates (Perkin Elmer Cat #6005174) were soaked with 50 μl of 0.3% PEI per well for at least 0.5 hour at room temperature. When the binding assays were completed, the reaction mixtures were filtered through GF/C plates using Perkin Elmer Filtermate Harvester, and each plate washed 4 times with cold wash buffer (50 mM Tris-HCl, 154 mM NaCl, pH 7.4). The filter plates were dried for 1 hour at 50 degrees. After drying, the bottom of the filter plate wells was sealed, 50 μl of Perkin Elmer Microscint 20 cocktail was added, and the top of the filter plate was sealed. ^3H trapped on the filter was counted using Perkin Elmer MicroBeta2 Reader. The data were analyzed with GraphPad Prism 5 to obtain binding IC50 values. The “Inhibition [% Control]” was calculated using the equation: % Inh=(1-Background subtracted Assay value/Background subtracted HC value)*100, where HC is high control.

Chain of HEK-293 cells expressing human recombinant adenosine A2A receptor (P29274 whole entry): as above

Structure (SMILES) | IC50 [1] [nM] | inhibition at 0.2 µM [2] [%] | IC50 [3] [nM] | A1 binding inhibition at 200 nM (%) [2] [%]
N#Cc1cccc(-c2nc(N)cnc2-c2cc(Cl)c3[nH]ncc3c2)c1 [Compound No. 2-7, 3-(6-amino-3-(7-chloro-1H-indazol-5-yl)pyrazin-2-yl)benzonitrile] | 130 | 81 | – | –
CC(NC(=O)c1nc(-c2ccc3ncccc3c2)c(-c2ccccc2)nc1N)c1cccc(C#N)n1 (centres unmarked) [Compound No. 111, 3-amino-N-(1-(6-cyanopyridin-2-yl)ethyl)-5-phenyl-6-(quinolin-6-yl)pyrazine-2-carboxamide] | – | 92 | 3.9 | –
CC(NC(=O)c1nc(-c2cc(Cl)c3ncccc3c2)c(-c2ccccc2)nc1N)c1ccccn1 (centres unmarked) [Compound No. 119, 3-amino-6-(8-chloroquinolin-6-yl)-5-phenyl-N-(1-(pyridin-2-yl)ethyl)pyrazine-2-carboxamide] | – | – | 12 | 92
CC(NC(=O)c1nc(-c2cc(Cl)c3ncccc3c2)c(-c2ccccc2)nc1N)c1cccc(C#N)n1 (centres unmarked) [Compound No. 114, 3-amino-6-(8-chloroquinolin-6-yl)-N-(1-(6-cyanopyridin-2-yl)ethyl)-5-phenylpyrazine-2-carboxamide] | – | 95 | 3.5 | –
N#Cc1cc(-c2nc(N)cnc2-c2cc(Cl)c3ncccc3c2)ccc1F [Compound No. 2-13, 5-(6-amino-3-(8-chloroquinolin-6-yl)pyrazin-2-yl)-2-fluorobenzonitrile] | 527 | 54 | – | –
CC(Oc1nc(-c2cc(Cl)c3ncccc3c2)c(-c2ccc(F)cc2)nc1N)c1ccccn1 (centres unmarked) [Compound No. 103, 5-(8-chloroquinolin-6-yl)-6-(4-fluorophenyl)-3-(1-(pyridin-2-yl)ethoxy)pyrazin-2-amine] | 1420 | 19 | – | –
CC(NC(=O)c1nc(-c2ccc3ncccc3c2)c(-c2ccccc2)nc1N)c1ncccn1 (centres unmarked) [Compound No. 120, 3-amino-5-phenyl-N-(1-(pyrimidin-2-yl)ethyl)-6-(quinolin-6-yl)pyrazine-2-carboxamide] | – | 45 | 6.8 | –
C[C@@H](NC(=O)c1nc(-c2ccc3ncccc3c2)c(-c2ccccc2)nc1N)c1cccc(C#N)n1 [Compound No. 115, (R)-3-amino-N-(1-(6-cyanopyridin-2-yl)ethyl)-5-phenyl-6-(quinolin-6-yl)pyrazine-2-carboxamide] | – | 74 | 64 | –
CC(NC(=O)c1nc(-c2ccc3ncccc3c2)c(-c2ccn(C)n2)nc1N)c1ccccn1 (centres unmarked) [Compound No. 459, 3-amino-5-(1-methyl-1H-pyrazol-3-yl)-N-(1-(pyridin-2-yl)ethyl)-6-(quinolin-6-yl)pyrazine-2-carboxamide] | – | – | 4.7 | –
C[C@@H](NC(=O)c1nc(-c2ccc3ncccc3c2)c(-c2cccc(C#N)c2)nc1N)c1cccc(C#N)n1 [Compound No. 117, (R)-3-amino-5-(3-cyanophenyl)-N-(1-(6-cyanopyridin-2-yl)ethyl)-6-(quinolin-6-yl)pyrazine-2-carboxamide] | – | 56 | 269 | –
CC(NC(=O)c1nc(-c2cc(Cl)c3ncccc3c2)c(-c2ccn(C)n2)nc1N)c1cccc(C#N)n1 (centres unmarked) [Compound No. 99, 3-amino-6-(8-chloroquinolin-6-yl)-N-(1-(6-cyanopyridin-2-yl)ethyl)-5-(1-methyl-1H-pyrazol-3-yl)pyrazine-2-carboxamide] | 72 | – | – | –
C[C@H](NC(=O)c1nc(-c2ccc3ncccc3c2)c(-c2cccc(C#N)c2)nc1N)c1cccc(C#N)n1 [Compound No. 118, (S)-3-amino-5-(3-cyanophenyl)-N-(1-(6-cyanopyridin-2-yl)ethyl)-6-(quinolin-6-yl)pyrazine-2-carboxamide] | – | 92 | 16 | –
CC(NC(=O)c1nc(-c2ccc3ncccc3c2)c(-c2ccn(C)n2)nc1N)c1cccc(C#N)n1 (centres unmarked) [Compound No. 127, 3-amino-N-(1-(6-cyanopyridin-2-yl)ethyl)-5-(1-methyl-1H-pyrazol-3-yl)-6-(quinolin-6-yl)pyrazine-2-carboxamide] | – | 84 | 3.9 | –
C[C@@H](NC(=O)c1nc(-c2cc(Cl)c3ncccc3c2)c(-c2ccccc2)nc1N)c1cccc(C#N)n1 [Compound No. 121, (R)-3-amino-6-(8-chloroquinolin-6-yl)-N-(1-(6-cyanopyridin-2-yl)ethyl)-5-phenylpyrazine-2-carboxamide] | – | 80 | 1.1 | –
C[C@@H](NC(=O)c1nc(-c2cc(Cl)c3ncccc3c2)c(-c2ccccc2)nc1N)c1ccccn1 [Compound No. 113, (R)-3-amino-6-(8-chloroquinolin-6-yl)-5-phenyl-N-(1-(pyridin-2-yl)ethyl)pyrazine-2-carboxamide] | – | 58 | 4.7 | –
CC(NC(=O)c1nc(-c2ccc3ncccc3c2)c(-c2ccn(C)n2)nc1N)c1ncccn1 (centres unmarked) [Compound No. 460, 3-amino-5-(1-methyl-1H-pyrazol-3-yl)-N-(1-(pyrimidin-2-yl)ethyl)-6-(quinolin-6-yl)pyrazine-2-carboxamide] | – | – | 7.3 | –
CCN(CC)CCNc1nc(-c2ccc3ncccc3c2)c(-c2ccccc2)nc1N [compound 1, N2-(2-(diethylamino)ethyl)-5-phenyl-6-(quinolin-6-yl)pyrazine-2,3-diamine] | 262 | – | – | –
C[C@@H](NC(=O)c1nc(-c2cc(Cl)c3[nH]ncc3c2)c(-c2ccn(C)n2)nc1N)c1ccccn1 [Compound No. 112, (R)-3-amino-6-(7-chloro-1H-indazol-5-yl)-5-(1-methyl-1H-pyrazol-3-yl)-N-(1-(pyridin-2-yl)ethyl)pyrazine-2-carboxamide] | – | 77 | 1.6 | –
C[C@H](NC(=O)c1nc(-c2ccc3ncccc3c2)c(-c2ccccc2)nc1N)c1cccc(C#N)n1 [Compound No. 116, (S)-3-amino-N-(1-(6-cyanopyridin-2-yl)ethyl)-5-phenyl-6-(quinolin-6-yl)pyrazine-2-carboxamide] | – | 98 | 5.4 | –
C[C@H](NC(=O)c1nc(-c2ccc3ncccc3c2)c(-c2ccccc2)nc1N)c1cnccn1 [Compound No. 129, (S)-3-amino-5-phenyl-N-(1-(pyrazin-2-yl)ethyl)-6-(quinolin-6-yl)pyrazine-2-carboxamide] | – | 61 | 3.9 | –
C[C@@H](NC(=O)c1nc(-c2cc(Cl)c3ncccc3c2)c(-c2ccccc2)nc1N)c1ccccn1 [Compound No. 123, (R)-3-amino-6-(8-chloroquinolin-6-yl)-5-phenyl-N-(1-(pyridin-2-yl)ethyl)pyrazine-2-carboxamide] | – | – | 1.1 | 89
